Article PMC9785921, “Evaluation of Chiral Organosulfur Compounds on Their Activity against the Malaria Parasite Plasmodium falciparum” (Tropical Medicine and Infectious Disease, 2022)
Read-outs that look alike come from different tables or passages of the source. Blank lines part the entries; values can stand above or below the molecule they belong to.

What was measured:
P. falciparum 3D7 strain = assay: Malstat assay, asexual blood stages, CQ-sensitive strain 3D7; assay type: cell-based; conditions: Plasmodium falciparum; for IC50: read-out: IC50 (µM) CQ-Sensitive Strain 3D7; for IC90: 90% inhibitory concentration estimated from the IC50
Method: (§1) Three P. falciparum strains were used for compound testing; a strain sensitive to chloroquine (CQ) 3D7, CQ-resistant strain Dd2 and P. falciparum gametocyte producing NF54 strain. The 3D7 and Dd2 strains were used to investigate the effect of the compounds on asexual blood stage replication. They were cultured in RPMI 1640/HEPES medium (Gibco, Thermo Scientific, Waltham, MA, USA) containing 10 µg/mL gentamicin (Gibco Thermo Scientific, Waltham, MA, USA,), 50 µg/mL hypoxanthine (Sigma-Aldrich, St. Louis, MO, USA), 0.5% v/v Albumax II (Gibco, Thermo Scientific, Waltham, MA, USA) and 5% hematocrit. Cultures were maintained at 37 °C using a gas mixture containing 5% CO2, 5% O2 and 90% N2. […] To obtain highly synchronized cultures, parasite cultures consisting mainly of ring stages were centrifuged, the pellet was resuspended in 10 mL of 5% w/v sorbitol/ddH20 and incubated for 10 min at room temperature. After washing the cells with RPMI to remove residual sorbitol, they were again cultivated, as described above. Erythrocyte concentrate and serum samples were obtained from the Department of Transfusion Medicine, University Hospital Aachen, Germany. The serum samples were mixed and pooled and donors were kept anonymous. The work with blood components from humans was approved by the Ethics commission of the RWTH University Hospital (EK 007/13).
(§2) The antiplasmodial effect of the compounds on P. falciparum asexual blood stage development was carried out using the Malstat assay, as described previously. Compounds dissolved in dimethyl sulfoxide (DMSO) were added to 1% ring stage P. falciparum 3D7 and Dd2 cultures (200 µL/well) in a 96-well plate in triplicate at final concentrations ranging from 100 µM to 0.78 µM. […] CQ at concentrations ranging from 500 nM to 4 nM was used as an internal control in the experiments, while parasites treated with 0.5% v/v DMSO served as the negative control. The parasites were cultured with the compounds for 72 h at 37 °C in the presence of the following gas combination: 5% O2, 5% CO2, and 90% N2. Afterwards, 20 µL of the incubated culture was removed and 100 µL of Malstat reagent (0.1% v/v Triton X-100, 1 g of L-lactate, 0.33 g Tris and 33 mg of 3-acetylpyridine adenine dinucleotide in 100 mL of distilled water, pH 9.0) was added in a new 96-well microtiter plate. Next, 20 µL mixture of NBT/Diaphorase (1:1; 1 mg/mL stock each) was added to the Malstat reaction and the parasite lactate dehydrogenase activity was then quantified by measuring the optical densities at 630 nm. IC50 values were then determined from variable-slope sigmoidal dose-response graphs using the GraphPad Prism program version 5 (GraphPad Software Inc., La Jolla, San Diego, CA, USA).

P. falciparum Dd2 strain = assay: Malstat assay, asexual blood stages, CQ-resistant strain Dd2; assay type: cell-based; conditions: Plasmodium falciparum, read-out: IC50 (µM) CQ-Resistant Strain Dd2
Method: as §1, §2

[1] = test system: non-infected erythrocytes; assay: Hemolytic assay; assay type: cell-based, human; conditions: IC50 and IC90 concentrations, 48 h, 37 °C, compared with 0.5% v/v DMSO
Method: Since the malaria parasite replicates in the red blood cell, we determined if the compounds have an effect on non-infected erythrocytes using hemolytic assays. To this end, 1 mL of washed uninfected erythrocytes at 5% hematocrit in regular medium was plated in triplicate in a 96-well plate (200 µL/well) in the presence of compounds at IC50 and IC90 concentrations. Erythrocytes treated with 0.15% w/v saponin were used as lysis control and 0.5% v/v DMSO was used as the negative control. Following 48 h of incubation at 37 °C, the plate was centrifuged at 500× g for 2 min and 100 µL of the supernatant was transferred to another plate and the absorbance was measured at 550 nm with a spectrophotometer.
(§3) Figure 4 Hemolytic and cytotoxic effect of compounds. (a) Hemolytic effect of compounds. […] The absorbance of free hemoglobin was measured at OD550 nm in the supernatant and normalized to 0.15% w/v saponin (set to 100%), which served as positive control in the experiments. 0.5% v/v DMSO was used as negative control. (b) Cytotoxicity effect of compounds on Hela cells. The cells were plated in 96-well microtiter plates and cultured overnight at 37 °C. The following day, the old medium was removed and 100 µL of fresh medium containing serially diluted compounds in corresponding wells at final concentrations ranging from 100 µM to 0.8 µM was added and the culture was incubated for 72 h. After incubation, the medium was replaced by 100 µL fresh drug-free medium and 20 µL MTT (5 mg/mL) was added in each well and incubated for 3 h at 37 °C. After 3 h, the MTT preparation was then removed from each well and 100 µL solubilization solution was added. Plates were then placed on a rotator at about 500 rpm at RT until the formazan precipitate was completely resuspended and the OD was measured at 450 nm. The data are representative of three independent experiments.

[2] = test system: P. falciparum NF54 gametocytes; assay: Gametocyte toxicity test; assay type: cell-based, Plasmodium falciparum; conditions: 48 h treatment, then 7 d drug-free; for reduction of mature gametocyte numbers (in words) / reduction of mature gametocyte numbers: compound at IC50 concentration; for reduction in stage IV and V gametocyte numbers: compound at IC90 concentration
Method: as §1
P. falciparum NF54 parasites were cultured at high parasitemia to induce gametocyte formation. Once stage II gametocytes appeared, 1 mL of culture was aliquoted in triplicate in a 24-well plate with compounds at the respective IC50 and IC90 concentrations that was determined from Malstat assay. The gametocytes were again cultivated for 9 d with the daily replacement of medium. For the first 48 h of cultivation, the gametocytes were treated with test compounds, and subsequently compound free medium was used. On day 9, blood smears were prepared and stained with Giemsa and the gametocytemia was determined by counting the numbers of gametocytes stages IV and V in a total number of 1000 erythrocytes.
Figure 3 Effect of organosulfur compounds on gametocyte development. Cultures rich in stage II gametocyte were incubated with compounds at IC50 and IC90 concentrations for 2 d, and again cultivated for another 7 d with daily replacement of medium. The numbers of stage IV and V gametocytes were determined from Giemsa smears and normalized to 0.5% v/v DMSO treatment which served as negative control (set to 100%). Epoxomicin (Epoxo) at 60 nM served as positive control.

[3] = MTT cytotoxicity assay, Hela cells; assay type: cell-based; conditions: human, Hela cells (human cervical cancer cell line); for viability at 72 h: about 25 µM
Method: The MTT [3-(4,5-dimethylthiazol-2-yl)-2,5-diphenyltetrazolium bromide] assay was performed using the human cervical cancer cell (Hela) line and the hematologic malignancy human erythroleukemia (HEL) cell line to determine if the compounds were toxic (loss of viability) against human cells. MTT is taken up by viable cells and converted by mitochondrial dehydrogenases to a violet formazan product that cannot diffuse through cell membranes, and therefore crystallizes in viable cells. The adherent Hela cells were plated in 96-well microtiter plates and cultured at 37 °C overnight. Compounds were added to the cultures in different serial concentrations in triplicate the next day, and the cells were incubated for 72 h. DMSO was used as the negative control at a final concentration of 0.5% v/v, and a concentration of 15% v/v DMSO which is toxic was added as the positive control. After 72 h of drug treatment, medium-containing drug was replaced with 100 µL fresh drug-free medium. Then, 20 µL MTT (5 mg/mL) was added to each well and incubated for 3 h at 37 °C. The medium was subsequently removed and 100 µL solubilization solution (5% w/v SDS, 0.1 M HCl in 100% vol. DMSO) was added and incubated for 30 min under rotation at room temperature to solubilize the formazan crystals.
For both cell lines, the optical density (OD) of the solution was measured at 550 nm. The OD-values of cultures treated with compounds were normalized to the OD-values of 0.5% v/v DMSO control (set to 100% viability for Hela or 1 for HEL cell line). IC50 values were calculated from MTT assays using Graphpad Prism (V9).
as §3

[4] = 3D7, ring stage parasites, 72 h, Malstat (plasmodial LDH)
[5] = DD2, ring stage parasites, 72 h, Malstat

IC50 (P. falciparum 3D7 strain; [4]): 2.6 ± 0.7 µM
IC90 (P. falciparum 3D7 strain; 3D7): 23.4 µM
IC50 (P. falciparum Dd2 strain; [5]): 4 ± 0.28 µM
Compound: CCOC(=O)C1=C(c2ccc(C)cc2)N=S(=O)(N2CCCCCC2)c2ccc(C)cc21 (stereo not drawn) [Compound 17]
hemolytic effect [1]: no hemolytic effect
reduction of mature gametocyte numbers [2]: about 50%
viability at 72 h, 50 µM [3]: > 60%
viability at 72 h [3]: > 90%

IC50 (P. falciparum 3D7 strain; [4]): 26.5 ± 1.19 µM
Compound: CCOC(=O)C1=C(c2ccccc2)N=S(=O)(N2CCCCCC2)c2ccccc21 (stereo not drawn) [Compound 18]

IC50 (P. falciparum 3D7 strain; [4]): 31.5 ± 4.9 µM
Compound: CCOC(=O)C1=C(c2cccs2)N=S(=O)(N2CCCCCC2)c2ccccc21 (stereo not drawn) [Compound 19]

IC50 (P. falciparum 3D7 strain; [4]): 8 ± 0.53 µM
Compound: CN1CCC[C@H](NC(=S)Nc2cc(C(F)(F)F)cc(C(F)(F)F)c2)C1 [Compound 20]

IC50 (P. falciparum 3D7 strain; [4]): 14.1 ± 1.5 µM
Compound: CC(C)C[C@@H](CN=[S@](C)(=O)c1ccccc1)NC(=S)Nc1cc(C(F)(F)F)cc(C(F)(F)F)c1 [Compound 21]

IC50 (P. falciparum 3D7 strain; [4]): 15.9 ± 1.46 µM
Compound: CC(C)[C@@H](CN=[S@@](C)(=O)c1ccccc1)NC(=S)Nc1cc(C(F)(F)F)cc(C(F)(F)F)c1 [Compound 22]

IC50 (P. falciparum 3D7 strain; [4]): 24.9 ± 1.06 µM
Compound: O=[S@@]1(c2ccccc2)=Nc2ccccc2-c2ncc3ccccc3c21 [Compound 23]

More lines, now with the values behind:

Compound: CCN(CC)CCCC(C)Nc1ccnc2cc(Cl)ccc12 (stereo not drawn) [Chloroquine, reference compound]
IC50 (P. falciparum 3D7 strain; 3D7, 72 h): 0.02 ± 0.004 µM
IC50 (P. falciparum Dd2 strain; DD2, 72 h): 0.14 ± 0.063 µM

Compound: CCOC(=O)C1=C(C)N=S2(=NC(c3ccccc3)=CC(c3ccccc3)=C2)c2ccccc21 (stereo not drawn) [Compound 1]
hemolytic effect [1]: no hemolytic effect
IC50 (P. falciparum 3D7 strain; [4]): 3.8 ± 0.66 µM
IC90 (P. falciparum 3D7 strain; 3D7): 34.2 µM
reduction of mature gametocyte numbers (in words) [2]: only minor reduction
reduction in stage IV and V gametocyte numbers [2]: very high reduction
viability at 72 h, 50 µM [3]: > 60%
viability at 72 h [3]: > 90%

Compound: CCOC(=O)C1=C(C)N=S2(=NC(c3ccccc3)=CC(c3ccc(Cl)cc3)=C2)c2ccccc21 (stereo not drawn) [Compound 2]
hemolytic effect [1]: no hemolytic effect
IC50 (P. falciparum 3D7 strain; [4]): 3.12 ± 0.58 µM
IC90 (P. falciparum 3D7 strain; 3D7): 27.9 µM
reduction of mature gametocyte numbers (in words) [2]: only minor reduction
reduction in stage IV and V gametocyte numbers [2]: very high reduction
viability at 72 h, 50 µM [3]: > 60%
viability at 72 h [3]: > 90%

Compound: O=S1(c2ccc(Br)cc2)=NC(c2ccccc2)=CC(c2ccc(Cl)cc2)=N1 (stereo not drawn) [Compound 3]
IC50 (P. falciparum 3D7 strain; [4]): 22.1 ± 1.06 µM

Compound: CCOC(=O)C1=C(c2cccs2)N=S(=O)(N2CCCCCC2)c2c1cc1ccccc1c2Cl (stereo not drawn) [Compound 4]
IC50 (P. falciparum 3D7 strain; [4]): 9.1 ± 2.59 µM

Compound: O=S1(N2CCCCCC2)=NC(c2ccc(Br)cc2)=Cc2ccccc21 (stereo not drawn) [Compound 6]
IC50 (P. falciparum 3D7 strain; [4]): 10.6 ± 1.53 µM

Compound: CCOC(=O)C1=C(c2cccs2)N=S(=O)(N2CCCCCC2)c2c(C)cccc21 (stereo not drawn) [Compound 7]
IC50 (P. falciparum 3D7 strain; [4]): 35.8 ± 5.11 µM

Compound: Cc1cccc2c1S(=O)(N1CCCCCC1)=NC(c1ccc(Br)cc1)=C2 (stereo not drawn) [Compound 8]
IC50 (P. falciparum 3D7 strain; [4]): 12.5 ± 3.27 µM

Compound: CC(C)(C)c1ccc2c(c1)C=C(c1ccccc1)N=S2(=O)N1CCCCCC1 (stereo not drawn) [Compound 9]
hemolytic effect [1]: no hemolytic effect
IC50 (P. falciparum 3D7 strain; [4]): 3.3 ± 1.56 µM
IC90 (P. falciparum 3D7 strain; 3D7): 29.7 µM
reduction of mature gametocyte numbers [2]: about 50%
IC50 (P. falciparum Dd2 strain; [5]): 6.5 ± 0.87 µM
viability at 72 h, 50 µM [3]: > 60%
viability at 72 h [3]: > 90%

Compound: O=S1(N2CCCCCC2)=NC(c2ccccc2)=Cc2ccccc21 (stereo not drawn) [Compound 10]
IC50 (P. falciparum 3D7 strain; [4]): 46.4 ± 2.67 µM

Compound: CCOC(=O)C1=C(C)N=S(=O)(N2CCCCCC2)c2ccc(C)cc21 (stereo not drawn) [Compound 11]
IC50 (P. falciparum 3D7 strain; [4]): 12 ± 4.28 µM

Compound: Cc1ccc2c(c1)C=C(c1ccccc1)N=S2(=O)N1CCCCCC1 (stereo not drawn) [Compound 12]
IC50 (P. falciparum 3D7 strain; [4]): 21.3 ± 4.05 µM

Compound: O=S1(N2CCCCCC2)=NC(c2ccccc2)=Cc2cccc(Cl)c21 (stereo not drawn) [Compound 13]
IC50 (P. falciparum 3D7 strain; [4]): 20.3 ± 1.69 µM

Compound: O=[N+]([O-])c1ccc2c(c1)C=C(c1ccccc1)N=S2(=O)N1CCCCCC1 (stereo not drawn) [Compound 14]
IC50 (P. falciparum 3D7 strain; [4]): 10.3 ± 0.9 µM

Compound: CCOC(=O)C1=C(C)N=S(=O)(N2CCCCCC2)c2ccc([N+](=O)[O-])cc21 (stereo not drawn) [Compound 15]
hemolytic effect [1]: no hemolytic effect
IC50 (P. falciparum 3D7 strain; [4]): 5.2 ± 1.95 µM
IC90 (P. falciparum 3D7 strain; 3D7): 46.8 µM
reduction of mature gametocyte numbers (in words) [2]: only minor reduction
reduction in stage IV and V gametocyte numbers [2]: very high reduction
viability at 72 h, 50 µM [3]: > 60%
viability at 72 h [3]: > 90%

Compound: CCOC(=O)C1=C(c2ccc(C)cc2)N=S(=O)(N2CCCCCC2)c2ccccc21 (stereo not drawn) [Compound 16]
hemolytic effect [1]: no hemolytic effect
IC50 (P. falciparum 3D7 strain; [4]): 3.1 ± 0.26 µM
IC90 (P. falciparum 3D7 strain; 3D7): 27.9 µM
reduction of mature gametocyte numbers [2]: about 50%
IC50 (P. falciparum Dd2 strain; [5]): 4.4 ± 0.59 µM
viability at 72 h, 50 µM [3]: > 60%
viability at 72 h [3]: > 90%
